Experimental data from patent US11787799B2 (priority 2015, dated 2023).
“And” between values parts separate entries of the source, which are not always exact repeats. Equal entries are not always repeated.

Tests used:
[1] = test system: RD cells
[2] = test system: Enterovirus D68/US/KY/14-18953; test: Antiviral assay, Enterovirus D68 strain US/KY/14-18953 in RD cells; assay type: cell-based
[3] = test system: Enterovirus D68/Fermon; test: Antiviral assay, Enterovirus D68 strain Fermon in RD cells; assay type: cell-based
[4] = test system: Enterovirus D68/US/Mo/14-18949; test: Antiviral assay, Enterovirus D68 strain US/Mo/14-18949 in RD cells; assay type: cell-based
[5] = test system: Echovirus 9; test: microbe, parasite or virus in culture; assay type: cell-based; details: read-out: EC50 ECHO09
[6] = test system: HeLa-RW cells
[7] = test system: Coxsackievirus B3-H3; test: microbe, parasite or virus in culture; assay type: cell-based; details: read-out: EC50 CVB3-H3
[8] = test system: Poliovirus 3; test: microbe, parasite or virus in culture; assay type: cell-based; details: read-out: EC50 PV3
[9] = test system: Coxsackievirus A9; test: microbe, parasite or virus in culture; assay type: cell-based; details: read-out: EC50 COX A9
[10] = test system: Coxsackievirus B5; test: microbe, parasite or virus in culture; assay type: cell-based; details: read-out: EC50 CVB5
[11] = test system: Coxsackievirus B4; test: microbe, parasite or virus in culture; assay type: cell-based; details: read-out: EC50 CVB4
[12] = test system: Poliovirus 1; test: microbe, parasite or virus in culture; assay type: cell-based; details: read-out: EC50 PV1
[13] = test system: Echovirus 6; test: microbe, parasite or virus in culture; assay type: cell-based; details: read-out: EC50 ECHO06
[14] = test system: LLC cells
[15] = test system: Coxsackievirus B1; test: microbe, parasite or virus in culture; assay type: cell-based; details: read-out: EC50 CVB1
[16] = test system: Coxsackievirus B2; test: microbe, parasite or virus in culture; assay type: cell-based; details: read-out: EC50 CVB2
[17] = test system: Enterovirus 71; test: microbe, parasite or virus in culture; assay type: cell-based; details: read-out: EC50 EV71
[18] = test system: Echovirus 7; test: microbe, parasite or virus in culture; assay type: cell-based; details: read-out: EC50 ECHO07

SMILES | CC50 [1] | EC50 [2] | EC50 [3] | EC50 [4] | EC50 [5] | CC50 [6] | EC50 [7] | EC50 [8] | EC50 [9] | EC50 [10] | EC50 [11] | EC50 [12] | EC50 [13] | CC50 [14] | EC50 [15] | EC50 [16] | EC50 [17] | EC50 [18]
CC(C)n1ncc2c(C(=O)Nc3ccccc3F)cc(-c3nccs3)nc21 [JX-007] | > 200 µM | 1.2 µM | 0.8 ± 0.28 µM | 0.66 ± 0.1 µM | – | – | – | – | – | – | – | – | – | – | – | – | – | –
CC(C)(C)n1ncc2c(C(=O)Nc3ccccc3F)cc(-c3cccs3)nc21 [JX-013] | > 200 µM | 1.8 ± 0.44 µM | 1.33 ± 0.23 µM | 1.07 ± 0.23 µM | – | – | – | – | – | – | – | – | – | – | – | – | – | –
CC(C)n1ncc2c(C(=O)Nc3ccc(F)c(F)c3)cc(-c3cccs3)nc21 [JX-015] | – | – | – | – | 0.6 µM | > 200 µM | 1.3 ± 0.1 µM | > 25 µM | 1.2 µM | 2.3 µM | 3.1 µM | > 25 µM | 1.3 ± 0.1 µM | > 200 µM | 2.3 µM | – | – | –
CC(C)n1ncc2c(C(=O)Nc3cc(F)cc(F)c3)cc(-c3cccs3)nc21 [JX-016] | – | – | – | – | – | – | > 10 µM | > 10 µM | – | > 10 µM | > 10 µM | > 10 µM | – | – | > 10 µM | > 10 µM | – | –
CC(C)n1ncc2c(C(=O)Nc3cc(F)ccc3F)cc(-c3cccs3)nc21 [JX-018] | – | – | – | – | – | > 200 µM | 2.7 ± 0.4 µM | > 25 µM | 2.4 µM | – | – | > 25 µM | 2.6 ± 0.3 µM | 100 µM | – | – | 3.5 µM | –
CC(C)n1ncc2c(C(=O)Nc3cccc(F)c3F)cc(-c3cccs3)nc21 [JX-019] | – | – | – | – | – | > 200 µM | 2.7 ± 0.4 µM | > 25 µM | – | – | – | > 25 µM | 2 ± 0.6 µM | 75 µM | – | – | 3 µM | –
CC(C)n1ncc2c(C(=O)Nc3c(F)cc(F)cc3F)cc(-c3cccs3)nc21 [JX-020] | – | – | – | – | – | > 200 µM | 1.8 ± 0.7 µM | > 25 µM | 2.4 µM | 2.3 µM | 3.1 µM | > 25 µM | 2.4 µM | > 200 µM | 6 µM | – | 3 µM | –
CC(C)n1ncc2c(C(=O)Nc3ccc(F)cc3)cc(-c3ccco3)nc21 [JX-026] | > 200 µM | 1.3 ± 0.2 µM | 1.2 µM | 1 ± 0.02 µM | – | > 200 µM | 2.4 µM | > 25 µM | – | 3.3 µM | 3.3 µM | > 25 µM | 2.4 µM | > 200 µM | 3.3 µM | 3.3 µM | 2.6 ± 0.3 µM | –
CC(C)n1ncc2c(C(=O)Nc3ccccc3S(N)(=O)=O)cc(-c3cccs3)nc21 [JX-033] | – | – | – | – | – | 10 µM | 2.6 ± 0.4 µM | > 25 µM | 2.4 µM | 2.7 ± 0.6 µM | 3.1 ± 0.1 µM | > 25 µM | 2.4 µM | 25 µM | 3.9 ± 1.1 µM | 3.9 ± 1.1 µM | 2.5 ± 0.7 µM | –
CC(C)n1ncc2c(C(=O)Nc3ccc(F)cc3)cc(C3CC3)nc21 [JX-038] | – | – | – | – | – | 10 µM | 4.7 µM | > 10 µM | 3 µM | – | – | > 10 µM | 3.9 µM | 12.5 µM | 4.7 µM | 4.7 µM | 3.2 ± 0.1 µM | –
CC(C)n1ncc2c(C(=O)Nc3ccncc3)cc(-c3cccs3)nc21 [JX-042] | – | – | – | – | – | 6 µM | 0.6 µM | > 10 µM | 0.5 µM | 0.6 µM | 0.6 µM | > 10 µM | 0.2 µM | 6.25 µM | 0.6 µM | 0.6 µM | 0.4 µM | –
CC(C)n1ncc2c(C(=O)Nc3ccncn3)cc(-c3cccs3)nc21 [JX-043] | – | – | – | – | – | 20 µM | 0.6 µM | > 10 µM | 0.5 µM | 0.6 µM | 0.5 µM | > 10 µM | 0.2 µM | 50 µM | 0.6 µM | 0.6 µM | 0.5 ± 0.1 µM | 0.7 µM
CC(C)n1ncc2c(C(=O)Nc3ccc(S(C)(=O)=O)cc3)cc(-c3cccs3)nc21 [JX-047] | 75 µM | 0.3 µM | 0.3 µM | 0.16 ± 0.04 µM | – | 200 µM | 0.6 µM | > 10 µM | 0.5 µM | 0.6 µM | 0.6 µM | > 10 µM | 0.3 µM | 50 µM | 0.6 µM | 0.6 µM | 0.5 ± 0.1 µM | 0.8 µM
CC(C)n1ncc2c(C(=O)N3CCc4cc(F)ccc43)cc(-c3cccs3)nc21 [JX-048] | > 200 µM | 4.1 ± 1.2 µM | 2.8 ± 0.45 µM | 2.1 ± 0.6 µM | – | 20 µM | 1.5 µM | > 10 µM | 1.2 µM | 1.2 µM | 1.2 µM | > 10 µM | 1.1 µM | > 200 µM | 1.5 µM | 1.5 µM | 1.3 ± 0.2 µM | –
CC(C)n1ncc2c(C(=O)Nc3cccc(S(N)(=O)=O)c3)cc(C3CC3)nc21 [JX-055] | > 200 µM | 0.73 ± 0.12 µM | 0.7 ± 0.2 µM | 0.4 ± 0.2 µM | – | – | – | – | – | – | – | – | – | – | – | – | – | –
CC(C)n1ncc2c(C(=O)Nc3cccnc3)cc(-c3ccsc3)nc21 [JX-060] | – | – | – | – | – | 18 µM | 0.6 µM | > 10 µM | – | 0.6 µM | 0.6 µM | > 10 µM | – | 37 µM | 0.6 µM | 0.6 µM | 2.4 µM | –
CC(C)n1ncc2c(C(=O)Nc3cccc(C(N)=O)c3)cc(-c3cccs3)nc21 [JX-064] | 25 µM | 0.17 µM | – | 0.05 µM | 0.2 µM | 18 µM | 0.7 ± 0.1 µM | 6.25 µM | 0.6 µM | 0.6 µM | 0.6 µM | 6.25 µM | – | 20 µM | 0.6 µM | 0.6 µM | 0.5 µM | –
CC(C)n1ncc2c(C(=N)Nc3cccnc3)cc(-c3cccs3)nc21 [JX-065] | 75 µM | 6.3 µM | 6.3 µM | 4.7 ± 1.6 µM | – | – | – | – | – | – | – | – | – | – | – | – | – | –
CC(C)n1ncc2c(C(=O)Nc3cncnc3)cc(-c3cccs3)nc21 [JX-066] | 25 µM | 0.15 µM | 0.06 ± 0.02 µM | 0.05 ± 0.01 µM | 0.2 µM | 18 µM | 0.7 ± 0.2 µM | > 10 µM | 0.4 µM | 0.5 µM | 0.5 µM | > 10 µM | – | 20 µM | 0.5 µM | 0.5 µM | 0.4 µM | –
CC(C)n1ncc2c(C(=N)Nc3ccc(F)cc3)cc(-c3cccs3)nc21 [JX-067] | 100 µM | 2.27 ± 0.23 µM | 1.6 µM | 1.27 ± 0.12 µM | – | 18 µM | – | – | – | – | – | – | – | – | – | – | – | –
CC(C)n1ncc2c(C(=O)Nc3cc(S(N)(=O)=O)ccc3F)cc(-c3cccs3)nc21 [JX-068] | 25 µM | 0.11 ± 0.01 µM | 0.05 µM | 0.05 ± 0.01 µM | 0.2 µM | 18 µM | 0.6 µM | 6.25 µM | 0.6 µM | 0.5 µM | 0.5 µM | 6.25 µM | – | 25 µM | 0.6 µM | 0.5 µM | 0.5 µM | –
CC(C)n1ncc2c(C(=O)Nc3ccccn3)cc(-c3ccccc3)nc21 [JX-070] | 12.5 µM | 0.7 µM | 0.35 µM | – | – | 18.8 µM | 1.6 µM | > 10 µM | – | – | – | > 10 µM | – | 12.5 µM | 1.2 µM | 1.6 µM | 0.7 µM | 2.3 µM
CC(C)n1ncc2c(C(=O)Nc3ccccn3)cc(C3CC3)nc21 [JX-071] | 37 µM | 2.3 µM | 1.2 µM | – | – | 25 µM | 4.7 µM | > 10 µM | – | – | – | > 10 µM | – | 25 µM | 4.7 µM | 6.25 µM | 4.7 µM | 9.4 µM
CC(C)n1ncc2c(C(=O)Nc3cc(C(N)=O)ccc3F)cc(-c3cccs3)nc21 [JX-073] | 25 µM | < 0.4 µM | < 0.4 µM | – | – | 18.8 µM | 0.8 µM | 5 µM and 6.3 µM | – | – | – | 5 µM | – | 25 µM | 0.6 µM | 1.2 µM | 0.5 µM | 1.2 µM
CC(C)n1ncc2c(C(=O)Nc3ccc(F)cn3)cc(-c3cccs3)nc21 [JX-075] | 25 µM | < 0.4 µM | < 0.4 µM | < 0.4 µM | – | 37.5 µM | 0.7 ± 0.1 µM | > 10 µM | – | – | – | > 10 µM | – | > 200 µM | – | – | 1.2 µM | –
CC(C)n1ncc2c(C(=O)N3CCc4cccnc43)cc(-c3cccs3)nc21 [JX-076] | 45 µM | 4.7 µM | 4 µM | 4 µM | – | 37.5 µM | 9.4 µM | > 10 µM | – | – | – | > 10 µM | – | 50 µM | – | – | 12.5 µM | –
